Experimental data as given in article PMC7038240 (Antimicrobial Agents and Chemotherapy, 2020).
Read-outs that look alike come from different tables or passages of the source.

What was measured:
Assay type in all cases: cell-based
[1] = test system: P. aeruginosa; assay: microbe, parasite or virus in culture; details: Pseudomonas aeruginosa, read-out: MIC
Source text: (§1) The antibacterial activity of cefepime-taniborbactam was compared to that of ceftazidime-avibactam, ceftolozane-tazobactam, and cefepime-tazobactam against a diverse panel of Enterobacterales and P. aeruginosa clinical isolates with defined β-lactamase subtypes (see Table S1 in the supplemental material). IMP-producing strains were excluded, as none of the BLI-protected cephalosporins inhibited IMP sufficiently to provide a clinically relevant rescue of the partner β-lactam, a characteristic also shared by approved BLI-protected carbapenems (meropenem-vaborbactam and imipenem-relebactam). […] The antibacterial activity of the cephalosporins alone was included to ascertain the level of potentiation by the partnered BLI. BLIs were tested at a fixed concentration of 4 μg/ml in all combinations except cefepime-tazobactam, where tazobactam was fixed at a concentration of 8 μg/ml ([38]). The collection comprised 143 clinical isolates collected from 2005 and 2018.
(§2) The in vitro antibacterial activity of the β-lactams alone or in combination with the BLIs was determined in cation-adjusted Mueller-Hinton broth (CAMHB) microdilution assays according to CLSI recommendations ([51]). […]. The inocula for the broth microdilution assays were prepared by the broth culture method ([51]). […]

[2] = test system: S. marcescens; assay: microbe, parasite or virus in culture; details: Serratia marcescens
Source text: as §1, §2

[3] = test system: K. aerogenes; assay: microbe, parasite or virus in culture; details: Klebsiella aerogenes
Source text: as §1, §2

[4] = test system: C. freundii; assay: microbe, parasite or virus in culture; details: Citrobacter freundii
Source text: as §1, §2

[5] = test system: S. typhi; assay: microbe, parasite or virus in culture; details: Salmonella enterica, strain 26A, AmpC/TEM-1
Source text: as §1, §2

[6] = test system: E. coli; assay: microbe, parasite or virus in culture; details: Escherichia coli, read-out: MIC
Source text: as §1, §2

[7] = test system: K. oxytoca; assay: microbe, parasite or virus in culture; details: Klebsiella oxytoca, read-out: MIC
Source text: as §1, §2

[8] = test system: M. morgannii; assay: organism not typed; details: strain 769909; OXA-48
Source text: as §1, §2

Measured: MIC

CO/N=C(\C(=O)N[C@@H]1C(=O)N2C(C(=O)[O-])=C(C[N+]3(C)CCCC3)CS[C@H]12)c1csc(N)n1 [FEP]
0.06 µg/mL: [6]; ATCC25922, E. coli ATCC 25922, enzyme content None | [8]
0.5 µg/mL: [3]; strain 73546, AmpC | [4]; strain 134390, AmpC/TEM-1 | [6]; strain VER, OXA-48
64 µg/mL: [1]; strain Paeβ-18, 600-fold ↑ PDC-3/<0.01% OprD/3.9x and 5.6x ↑ABM and XYM | [6]; E. coli CDC-0452, NDM | [6]; NCTC13353, E. coli NCTC 13353, CTX-M-15 | [6]; strain 664516, OXA-48 | [6]; strain 664522, OXA-48 | [6]; strain 849121, KPC | [6]; strain 890500, TEM-1/CTX-M-14 | [6]; strain 1275635, VIM-23 | [6]; strain SI-LP377, CTX-M-2
≥ 256 µg/mL: [1]; strain 1013996, KPC-2 | [1]; strain 1138223, GES-19 | [1]; strain 1138337, GES-19 | [1]; strain 1275655, GES-20 | [1]; strain 1300089, GES-19 | [1]; strain 1313666, KPC-2 | [1]; strain PAA1-9G1, GES-5 | [1]; strain PAA1-9G2, GES-5 | [6]; strain 878358, TEM-1/CTX-M | [6]; strain 1459453, NDM-7 | [6]; strain CDC-0149, NDM | [6]; strain ESBL 5, CTX-M-15/TEM-1
16 µg/mL: [1]; strain 3615, PDC/TEM-1 | [1]; strain 5671, VIM-1 | [1]; strain 1071703, GES-6 | [1]; strain Paeβ-04, 100-fold ↑ PDC-2/30% OprD/5.6x ↑ABM | [1]; strain Paeβ-10, 67-fold ↑ PDC-2/0.1% OprD/5.7x↑ABM | [1]; strain Paeβ-21, 200-fold ↑ PDC-4/10% OprD/13.5x ↑XYM | [6]; strain 1924, TEM-12 | [6]; strain 664507, OXA-48 | [6]; strain SI-M004, SHV-2/GES-12
128 µg/mL: [1]; strain CDC-0090, KPC | [1]; strain Paeβ-15, 310-fold ↑ PDC-2/10% OprD/4.4x↑XYM | [6]; strain 664523, OXA-48 | [6]; strain 873435, CTX-M-15 | [6]; strain CDC-0001, KPC
4 µg/mL: [1]; strain 1129, PDC | [1]; strain 377860, W.T. | [1]; strain 384743, PDC/TEM-1 | [1]; strain Ps296, VIM-2 | [2]; strain 134434, AmpC/SHV-12/TEM-1 | [2]; strain 192476, AmpC/TEM-1/SHV-5 | [2]; strain 192478, AmpC/SHV-12/TEM-1 | [3]; strain 110099, AmpC/SHV-12 | [3]; strain 111707, AmpC/TEM-1 | [5] | [6]; strain EC1552 2A, AmpC/CMY-2/TEM-1, CTX-M-15 | [7]; strain 134943, CMY-2/TEM-1
32 µg/mL: [1]; strain 247.3D, VIM-2 | [1]; strain 1113755, GES-5 | [1]; strain 1258509, GES-6 | [1]; strain PS-12, VIM-2 | [6]; strain 664520, OXA-48 | [6]; strain CDC-0069, NDM | [7]; strain 847537, KPC
1 µg/mL: [1]; strain 164951, W.T. | [6]; strain 469, AmpC/SHV-12/TEM-1
8 µg/mL: [1]; strain 8273, PDC/TEM-1 | [1]; strain PA2, W.T. | [1]; strain PS-32, VIM-2 | [4]; strain 241181, AmpC/TEM-163 | [6]; strain 875627, CTX-M-27 | [6]; strain SI-V502, TEM-29/CTX-M-15
2 µg/mL: [2]; strain 218073, AmpC/SHV-7/TEM-1
0.25 µg/mL: [6]; strain SI-PO26, AmpC/CMY-2/TEM-1
